{
  "source": "patent US20190255091A1",
  "about": "“RNAi AGENTS FOR [sequence] B VIRUS INFECTION” (priority 2016, published 2019)",
  "key": {"Hepatitis B Virus (HBV) [1]": {"system": "Hepatitis B Virus (HBV)", "assay": "Serum HBV DNA levels in pHBV model mice (qPCR)", "type": "in vivo", "conditions": "single s.c. injection day 1, Example 7", "excerpt": "(§1) Six to eight-week-old female NOD.CB17-Prkdscid/NcrCrl (NOD-SCID) mice were transiently transfected in vivo with MC-HBV1.3 by hydrodynamic tail vein injection (Yang P L et al. “Hydrodynamic injection of viral DNA: a mouse model of acute hepatitis B virus infection,” PNAS USA 2002 Vol. 99: p. 13825-13830), administered 30 to 45 days prior to administration of an HBV RNAi agent or control. MC-HBV1.3 is a plasmid-derived minicircle that contains the same terminally redundant human hepatitis B virus sequence HBV1.3 as in plasmid pHBV1.3 and in the HBV1.3.32 transgenic mice (GenBank accession #V01460) (Guidotti L G et al., “High-level hepatitis B virus replication in transgenic mice,” J Virol 1995 Vol. 69, p 6158-6169.). 5 or 10 μg MC-HBV1.3 in Ringer's Solution in a total volume of 10% of the animal's body weight was injected into mice via tail vein to create pHBV model of chronic HBV infection. The solution was injected through a 27-gauge needle in 5-7 seconds as previously described (Zhang G et al., “High levels of foreign gene expression in hepatocytes after tail vein injection of naked plasmid DNA.” Human Gene Therapy 1999 Vol. 10, p 1735-1737.). At pre-dose (either day 1 pre-dose, day −1, or day −2), Hepatitis B surface antigen (HBsAg) HBsAg expression levels in serum were measured by ELISA and the mice were grouped according to average HBsAg expression levels.\n(§2) HBV expression levels were normalized to pre-administration expression levels and to control mice injected with phosphate buffered saline (“PBS”).\nEqual volumes of serum from mice in a group or subgroup were pooled to a final volume of 100 μL. DNA was isolated from serum samples using the QIAamp MinElute Virus Spin Kit (Qiagen, Valencia, Calif.) following the manufacturer's instructions. Sterile 0.9% saline was added to each sample to a final volume of 200 μL. Serum samples were added to tubes containing buffer and protease. Carrier RNA was added to aid in the isolation of small amounts of DNA. […] After incubating 15 min at 56° C., nucleic acids were precipitated from the lysates with ethanol and the entire solution applied to a column. After washing, the samples were eluted into a volume of 50 μL Buffer AVE.\nThe number of copies of HBV genomes in DNA isolated from the pHBV mouse model serum was determined by qPCR. Plasmid pSEAP-HBV353-777, encoding a short segment of the HBV genome within the S gene (bases 353-777 of GenBank accession #V01460), was used to create a six log standard curve. Samples with recovery of DNA below 2 standard deviations from the average, based on detection of pHCR/UbC-SEAP were omitted. TaqMan chemistry-based primers and probes with fluor/ZEN/IBFQ are utilized.\nqPCR assays were performed on a 7500 Fast or StepOne Plus Real-Time PCR system (Life Technologies). For evaluation of HBV DNA in serum, DNA was isolated from singlet or duplicate purification steps from pooled group serum samples. Quantitations of HBV DNA and recovery control plasmid were determined by qPCR reactions performed in triplicate. The probes to quantitate HBV and pHCR/UbC-SEAP were included in each reaction."}, "Hepatitis B Virus (HBV) [2]": {"system": "Hepatitis B Virus (HBV)", "assay": "Serum HBeAg levels in pHBV model mice (ELISA)", "type": "in vivo", "set-up": "key to Average HBeAg levels normalized to pre-treatment and PBS control: ratio to pre-treatment level, divided by PBS control ratio", "conditions": "for Average HBeAg fold knockdown normalized to pre-treatment and PBS control / Average HBeAg levels normalized to pre-treatment and PBS control: single s.c. injection day 1, Example 7; for Average HBeAg levels normalized to pre-treatment and PBS control: pooled serum", "excerpt": "as §1, §2\nHBeAg analysis was performed with the HBeAg enzyme linked immunosorbent assay (ELISA) as described by the manufacturer (DiaSorin) using serum diluted 4- to 20-fold in 5% nonfat dry milk. The amount of antigen was determined in the linear range of the assay and quantitated against HBeAg protein standards (Fitzgerald Industries International, catalog #30-AH18, Acton, Mass.).\nHBeAg expression for each animal was normalized to the control group of mice injected with PBS in order to account for the non-treatment related decline in expression of MC-HBV1.3. For evaluation of HBeAg in serum, HBeAg is analyzed from pooled group or subgroup serum samples. First, the HBeAg level for each pooled group or subgroup was divided by the pre-treatment level of expression in the same group or subgroup in order to determine the ratio of expression “normalized to pre-treatment”. Expression at a specific time point was then normalized to the control group by dividing the “normalized to pre-treatment” ratio for a group or subgroup by the average “normalized to pre-treatment” ratio of all samples from the normal PBS control group."}},
  "data": [
    {"substance": "AD04982: HBV RNAi agent duplex AM06464-AS/AM06150-SS (antisense UACCAAUUUAUGCCUACAGCC; sense GGCUGUAGGCAUAAAUUGGUA; chemistry not fully specified)", "values": [
      {"measurement": "Average Serum HBV DNA levels normalized to pre-treatment and PBS control", "setting": "Hepatitis B Virus (HBV) [1]; Day 8, 1.0 mg/kg", "value": "0.358 ± 0.207"},
      {"measurement": "Average Serum HBV DNA levels normalized to pre-treatment and PBS control", "setting": "Hepatitis B Virus (HBV) [1]; Day 8, 2.0 mg/kg", "value": "0.516 ± 0.163"},
      {"measurement": "Average Serum HBV DNA levels normalized to pre-treatment and PBS control", "setting": "Hepatitis B Virus (HBV) [1]; Day 15, 1.0 mg/kg", "value": "0.428 ± 0.073"},
      {"measurement": "Average Serum HBV DNA levels normalized to pre-treatment and PBS control", "setting": "Hepatitis B Virus (HBV) [1]; Day 15, 2.0 mg/kg", "value": "0.523 ± 0.264"},
      {"measurement": "Average Serum HBV DNA levels normalized to pre-treatment and PBS control", "setting": "Hepatitis B Virus (HBV) [1]; Day 22, 1.0 mg/kg", "value": "0.433 ± 0.220"},
      {"measurement": "Average Serum HBV DNA levels normalized to pre-treatment and PBS control", "setting": "Hepatitis B Virus (HBV) [1]; Day 22, 2.0 mg/kg", "value": "0.244 ± 0.123"},
      {"measurement": "Average Serum HBV DNA levels normalized to pre-treatment and PBS control", "setting": "Hepatitis B Virus (HBV) [1]; Day 29, 1.0 mg/kg", "value": "0.474 ± 0.090"},
      {"measurement": "Average Serum HBV DNA levels normalized to pre-treatment and PBS control", "setting": "Hepatitis B Virus (HBV) [1]; Day 29, 2.0 mg/kg", "value": "0.241 ± 0.085"},
      {"measurement": "Average Serum HBV DNA levels normalized to pre-treatment and PBS control", "setting": "Hepatitis B Virus (HBV) [1]; Day 36, 1.0 mg/kg", "value": "0.509 ± 0.163"},
      {"measurement": "Average Serum HBV DNA levels normalized to pre-treatment and PBS control", "setting": "Hepatitis B Virus (HBV) [1]; Day 36, 2.0 mg/kg", "value": "0.543 ± 0.079"},
      {"measurement": "Average HBeAg fold knockdown normalized to pre-treatment and PBS control", "setting": "Hepatitis B Virus (HBV) [2]; Day 8, 1.0 mg/kg", "value": 2.1, "unit": "Fold KD"},
      {"measurement": "Average HBeAg levels normalized to pre-treatment and PBS control", "setting": "Hepatitis B Virus (HBV) [2]; Day 8, 1.0 mg/kg", "value": 0.471},
      {"measurement": "Average HBeAg fold knockdown normalized to pre-treatment and PBS control", "setting": "Hepatitis B Virus (HBV) [2]; Day 8, 2.0 mg/kg", "value": 3.0, "unit": "Fold KD"},
      {"measurement": "Average HBeAg levels normalized to pre-treatment and PBS control", "setting": "Hepatitis B Virus (HBV) [2]; Day 8, 2.0 mg/kg", "value": 0.335},
      {"measurement": "Average HBeAg fold knockdown normalized to pre-treatment and PBS control", "setting": "Hepatitis B Virus (HBV) [2]; Day 15, 1.0 mg/kg", "value": 2.4, "unit": "Fold KD"},
      {"measurement": "Average HBeAg levels normalized to pre-treatment and PBS control", "setting": "Hepatitis B Virus (HBV) [2]; Day 15, 1.0 mg/kg", "value": 0.424},
      {"measurement": "Average HBeAg fold knockdown normalized to pre-treatment and PBS control", "setting": "Hepatitis B Virus (HBV) [2]; Day 15, 2.0 mg/kg", "value": 3.2, "unit": "Fold KD"},
      {"measurement": "Average HBeAg levels normalized to pre-treatment and PBS control", "setting": "Hepatitis B Virus (HBV) [2]; Day 15, 2.0 mg/kg", "value": 0.310},
      {"measurement": "Average HBeAg fold knockdown normalized to pre-treatment and PBS control", "setting": "Hepatitis B Virus (HBV) [2]; Day 22, 1.0 mg/kg", "value": 1.8, "unit": "Fold KD"},
      {"measurement": "Average HBeAg levels normalized to pre-treatment and PBS control", "setting": "Hepatitis B Virus (HBV) [2]; Day 22, 1.0 mg/kg", "value": 0.562},
      {"measurement": "Average HBeAg fold knockdown normalized to pre-treatment and PBS control", "setting": "Hepatitis B Virus (HBV) [2]; Day 22, 2.0 mg/kg", "value": 2.4, "unit": "Fold KD"},
      {"measurement": "Average HBeAg levels normalized to pre-treatment and PBS control", "setting": "Hepatitis B Virus (HBV) [2]; Day 22, 2.0 mg/kg", "value": 0.411},
      {"measurement": "Average HBeAg fold knockdown normalized to pre-treatment and PBS control", "setting": "Hepatitis B Virus (HBV) [2]; Day 29, 1.0 mg/kg", "value": 2.0, "unit": "Fold KD"},
      {"measurement": "Average HBeAg levels normalized to pre-treatment and PBS control", "setting": "Hepatitis B Virus (HBV) [2]; Day 29, 1.0 mg/kg", "value": 0.513},
      {"measurement": "Average HBeAg fold knockdown normalized to pre-treatment and PBS control", "setting": "Hepatitis B Virus (HBV) [2]; Day 29, 2.0 mg/kg", "value": 2.3, "unit": "Fold KD"},
      {"measurement": "Average HBeAg levels normalized to pre-treatment and PBS control", "setting": "Hepatitis B Virus (HBV) [2]; Day 29, 2.0 mg/kg", "value": 0.442},
      {"measurement": "Average HBeAg fold knockdown normalized to pre-treatment and PBS control", "setting": "Hepatitis B Virus (HBV) [2]; Day 36, 1.0 mg/kg", "value": 1.4, "unit": "Fold KD"},
      {"measurement": "Average HBeAg levels normalized to pre-treatment and PBS control", "setting": "Hepatitis B Virus (HBV) [2]; Day 36, 1.0 mg/kg", "value": 0.705},
      {"measurement": "Average HBeAg fold knockdown normalized to pre-treatment and PBS control", "setting": "Hepatitis B Virus (HBV) [2]; Day 36, 2.0 mg/kg", "value": 2.0, "unit": "Fold KD"},
      {"measurement": "Average HBeAg levels normalized to pre-treatment and PBS control", "setting": "Hepatitis B Virus (HBV) [2]; Day 36, 2.0 mg/kg", "value": 0.500},
      {"measurement": "fold decrease of HBeAg", "setting": "Hepatitis B Virus (HBV) [2]; Example 7 Group D, 2.0 mg/kg AD04982, day 15", "value": 3.2, "unit": "fold"}
    ]}
  ]
}
